Data set [1] deals with mustard beetle larvae (Phaedon cochleariae). The data set is described as follows: Phaedon larvae test. The data set is classed as in vivo. The conditions noted are these: active compound concentration of 0.1%, after 7 days, dipped cabbage leaves. The method, then:
Phaedon larvae test Solvent: 7 parts by weight of dimethylfornamide Emulsifier: 1 part by weight of alkylaryl polyglycol ether To produce a suitable preparation of active compound, 1 part by weight of active compound is mixed with the stated amount of solvent and emulsifier, and the concentrate is diluted with water to the desired concentration. Cabbage leaves (Brassica oleracea) are treated by being dipped into the preparation of active compound of the desired concentration and populated with mustard beetle larvae (Phaedon cochleariae) while the leaves are still moist.

Data set [2] concerns caterpillars of the army worm (Spodoptera frugiperda). The data set is described as follows: Spodoptera frugiperda test. The data set is classed as in vivo. To be noted: active compound concentration of 0.1%, after 7 days, dipped cabbage leaves. The method, then: Spodoptera frugiperda test
(§1) Solvent: 7 parts by weight of dimethylformamide
(§2) Emulsifier: 1 part by weight of alkylaryl polyglycol ether
To prepare a suitable preparation of active compound, 1 part by weight of active compound is mixed with the stated amount of solvent and emulsifier, and the concentrate is diluted with water to the desired concentration.
Cabbage leaves (Brassica oleracea) are treated by being dipped into the preparation of active compound of the desired concentration and populated with caterpillars of the army worm (Spodoptera frugiperda) while the leaves are still moist.
After the desired period of time, the kill in % is determined. 100% means that all caterpillars have been killed; 0% means that none of the caterpillars have been killed.

Data set [3] relates to all stages of the greenhouse red spider mite (Tetranychus urticae). In words: Tetranychus test (OP-resistant/dip treatment). The data set is classed as in vivo. The protocol:
Tetranychus test (OP-resistant/dip treatment)
as §1, §2
To produce a suitable preparation of active compound, 1 part by weight of active compound is mixed with the stated amount of solvent and emulsifier, and the concentrate is diluted with emulsifier-containing water to the desired concentration.
Bean plants (Phaseolus vulgaris) which are heavily infested by all stages of the greenhouse red spider mite (Tetranychus urticae) are dipped into a preparation of active compound of the desired concentration.
After the desired period of time, the effect in % is determined. 100% means that all spider mites have been killed, 0% means that none of the spider mites have been killed.

Data set [4] has as its system Lucilia cuprina larvae. In words: Blowfly larvae test/development-inhibitory action. The data set is classed as in vivo. To be noted: active compound concentration of 100 ppm; 100% means that none of the flies have hatched. The method, then:
Blowfly larvae test/development-inhibitory action
Test animals: Lucilia cuprina larvae
Solvent: Dimethylsulfoxide
20 mg of active compound are dissolved in 1 ml of dimethyl suiphoxide, and more dilute concentrations are prepared by dilution with dist. water.
Approximately 20 Lucilia cuprina larvae are introduced into a test tube which contains approximately 1 cm^3 of horse meat and 0.5 ml of the active compound preparation to be tested. After 24 and 48 hours, the efficacy of the preparation of active compound is determined. The test tubes are transferred into a beaker with sand-covered bottom. After a further 2 days, the test tubes are removed and the pupae are counted.
The effect of the preparation of active compound is assessed by the number of the flies which have hatched after 1.5 times the development time of an untreated control. 100% means that none of the flies have hatched; 0% means that all flies have hatched normally.

The mark [5] stands for this setting: active compound concentration of 0.01%, after 7 days, dipped bean plants.

On to `N#CN1C(c2c(F)cccc2F)=NCC1c1ccc(-c2ccc(OC(F)(F)F)cc2)cc1` (stereo not drawn) [Example I-5b, 3-cyano-4-(4′-trifluoromethoxy-4-biphenylyl)-2-(2,6-difluorophenyl)-4,5-dihydro-3H-imidazole], for which the kill in data set [1], in data set [2] and in data set [3] (setting [5]) was 100% each time.

For the compound `N#CN1CC(c2ccc(-c3ccc(OC(F)(F)F)cc3)cc2)N=C1c1c(F)cccc1F` (stereo not drawn) [Example I-5a, 1-cyano-4-(4′-trifluoromethoxy-4-biphenylyl)-2-(2,6-difluorophenyl)-4,5-dihydro-1H-imidazole], the melting point was in the range of 123 to 124 °C. Moreover, the kill in data set [1] was found to be 100%. In data set [2], this compound displayed a kill of 100%. Besides, the kill in data set [3] (setting [5]) worked out at 100%.

In the case of `CCOCN1C(c2c(F)cccc2F)=NCC1c1ccc(-c2ccc(OC(F)(F)F)cc2)cc1` (stereo not drawn) [Example I-6b, 3-ethoxymethyl-4-(4′-trifluoromethoxy-4-biphenylyl)-2-(2,6-difluorophenyl)-4,5-di-hydro-3H-imidazole], in data set [1], the kill was 100%.

With `CCOC(=O)N1CC(c2ccc(-c3ccc(OC(F)(F)F)cc3)cc2)N=C1c1ccccc1Cl` (stereo not drawn) [Example I-4, 2-(2-chlorophenyl)-1-ethoxycarbonyl-4-(4′-trifluormethoxy-4-biphenylyl)-4,5-dihydro-1H-imidazole], the kill in data set [1] and in data set [2] was 100% each time.

For `CC(=O)N1CC(c2ccc(-c3ccc(OC(F)(F)F)cc3)cc2)N=C1c1c(F)cccc1F` (stereo not drawn) [Example I-7a, 1-acetyl-4-(4′-trifluoromethoxy-4-biphenylyl)-2-(2,6-difluorophenyl)-4,5-dihydro-1H-imidazole], the kill came to 90% in data set [1], 100% in data set [2] and 100% in data set [3] (setting [5]).

Regarding `NC(=S)N1CC(c2ccc(-c3ccc(OC(F)(F)F)cc3)cc2)N=C1c1c(F)cccc1F` (stereo not drawn) [Example I-8, 4-(4′-trifluoromethoxy4-biphenylyl)-2-(2,6-difluorophenyl)-1-thiocarbamoyl-4,5-dihydro-1H-imidazole], the melting point was 93 to 95 °C. Further, the kill in data set [1] is listed as 100%. This compound showed a kill in data set [2] of 100%. In data set [3] (setting [5]), this compound registered a kill of 95%.

For the compound `CCOCN1CC(c2ccc(-c3ccc(OC(F)(F)F)cc3)cc2)N=C1c1c(F)cccc1F` (stereo not drawn) [Example I-6a, 1-ethoxymethyl-4-(4′-trifluoromethoxy-4-biphenylyl)-2-(2,6-difluorophenyl)-4,5-di-hydro-1H-imidazole], the kill in data set [1], in data set [2] and in data set [3] (setting [5]) was 100% each time.

In turn, `CCOC(=O)N1CC(c2ccc(-c3ccc(OC(F)(F)F)cc3)cc2)N=C1c1c(F)cccc1F` (stereo not drawn) [Example I-3, 1-ethoxycarbonyl4-(4′-trifluoromethoxy-4-biphenylyl)-2-(2,6-difluoro-phenyl)-4,5-dihydro-1H-imidazole] came in with a melting point of 105 to 107 °C. The same compound registered a kill in data set [2] of 100%. In data set [3] (168 h), this compound returned a kill of 100%. In addition, the efficacy in data set [4] was found to be 100%.

As usually defined, the melting point is the temperature of the solid-liquid transition.

(Values after US6380237B1, “Diphenylimidazolines” (Bayer Aktiengesellschaft, priority 1998, dated 2002).)
